Experimental data: patent US20230293640A1, “COMPOUNDS FOR THE TREATMENT OF ENDOTHELIITIS IN CONTEXT OF VIRALLY CAUSED DISEASES” (F4 PHARMA GMBH, priority 2020, published 2023)
Where a SMILES comes first, the peptide text is derived from it.

Assays:
[1] = tested on: COVID-19-associated severe ARDS; settings: data of the 3 patients of example 2
Text: Example 2: Critically ill patients suffering from a COVID-19 infection in a second university care centre.
To this date, we treated three patients in individualized therapeutic attempts with FX06 in the second university care center.
All three patients were diagnosed with SARS-CoV-2 pneumonia resulting in severe acute respiratory distress syndrome (ARDS) and required extracorporeal membrane oxygenation (ECMO) therapy upon or early during their treatment in our facility. All patients were referred to our hospital from basic care providers due to the severity of their conditions. All patients required ECMO therapy at the time of FX06 treatment.
FX06 400 mg was administered once per day after informed consent by the close relative.

[2] = human, in vivo; cited from earlier work

## CC[C@H](C)[C@H](NC(=O)[C@@H]1CCCN1C(=O)[C@@H]1CCCN1C(=O)[C@@H]1CCCN1C(=O)[C@H](C)NC(=O)[C@@H]1CCCN1C(=O)[C@H](CCCNC(=N)N)NC(=O)[C@H](CC(C)C)NC(=O)[C@H](CO)NC(=O)[C@@H]1CCCN1C(=O)[C@H](C)NC(=O)[C@H](CCC(=O)O)NC(=O)[C@H](CCC(=O)O)NC(=O)[C@H](CCCNC(=N)N)NC(=O)[C@H](CCCCN)NC(=O)[C@H](CCCCN)NC(=O)[C@H](CC(=O)O)NC(=O)[C@H](CC(C)C)NC(=O)[C@@H]1CCCN1C(=O)[C@H](CCCNC(=N)N)NC(=O)[C@H](Cc1c[nH]cn1)NC(=O)CN)C(=O)N[C@@H](CO)C(=O)NCC(=O)NCC(=O)NCC(=O)N[C@@H](Cc1ccc(O)cc1)C(=O)N[C@@H](CCCNC(=N)N)C(=O)O [FX06] (H-GHRPLDKKREEAPSLRPAPPPISGGGYR-OH)
[1]
  safety in severe ARDS: safe to use
[2]
  tolerability / safety profile in clinical trials: well tolerated with a benign safety profile
